Measured values reported in patent publication US20130150434A1 (SOMAXON PHARMACEUTICALS, INC., priority 2006, published 2013).

Legend:
[1] = test system: chronic primary insomnia patients with sleep maintenance difficulties; experiment: Phase III study of doxepin, 8-hour PSG efficacy variables (WASO, TST, SE, LPS); conditions: ITT
Source text: Patients with at least a 3-month history of primary insomnia, according to Diagnostic and Statistical Manual of Mental Disorders, Fourth Edition Text Revision (DSM-IV-TR)-defined primary insomnia were enrolled.
Patients were screened (Visit 1) to determine study eligibility and asked to discontinue any protocol-disallowed prescription or over-the-counter (OTC) medications used as sleep medication. At the beginning of the first week (polysomnography [PSG] Screening, Visit 2), eligible patients began two weeks of single-blind placebo dosing and had two consecutive nights of 8-hour PSG recording in the sleep center. Patients were required to meet the PSG screening criteria to remain eligible for the study. Patients were allowed to leave the sleep center during the day after the PSG Screening nights and continued to take single-blind placebo after PSG Screening (Visit 2) for five consecutive nights at home.
Patients were allowed to leave the sleep center during the day after the PSG nights and continued taking single-blind placebo for five consecutive nights at home.
After the PSG Screening and Baseline periods, patients began a 35-day double-blind treatment period during which they were given study drug supplies at each scheduled visit (Visits 4, 5, and 6). The scheduled study visits consisted of two consecutive nights of 8-hour PSG recording in the sleep center and next day assessments to assess sedative efficacy. Patients were asked to complete hangover/residual effects assessments, morning and evening questionnaires, and the Benzodiazepine Withdrawal Symptom Questionnaire (BWSQ) at each of these visits.
Primary Efficacy: The primary efficacy variable was wake after sleep onset (WASO) obtained on Night 1 as determined by PSG recordings using the ITT analysis set.
Additional PSG efficacy variables: Additional efficacy variables obtained on the first PSG assessment nights (Nights 1 and 29) included WASO (Night 29), wake time during sleep (WTDS), total sleep time (TST), sleep efficiency (SE), including whole night, third of the night, and by hour, and latency to persistent sleep (LPS), latency to Stage 2 sleep, number of awakenings after sleep onset (NAASO), total wake time (TWT), wake time after sleep (WTAS), and, sleep architecture including percentage and minutes of Stage 1, 2, and 3/4 non-rapid eye movement (NREM) sleep, percentage and minutes of rapid eye movement (REM) sleep, and latency to REM sleep.
Methods used to analyze other endpoints were the same as those used to analyze WASO. For LPS, latency to REM sleep, latency to Stage 2 sleep, and LSO, data were expected to be log-normally distributed and were analyzed using log-transformed values (base 10). The safety data were analyzed primarily using descriptive statistical methods.
All efficacy analyses were performed on the Intent-to-treat (ITT) analysis set. […] Data were analyzed as randomized and based on observed cases.

[2] = test system: chronic primary insomnia patients with sleep maintenance difficulties; experiment: Phase III study of doxepin, rebound insomnia by PSG during the 2-day discontinuation period; format: in vivo, human; conditions: for WASO (rebound insomnia analysis), Median: Baseline = worst WASO value of Nights −6 and −5; for WASO (rebound insomnia analysis), Mean (SD): Baseline = worst WASO value of Nights −6 and −5 from Visit 3; for WASO, Change from Baseline to Visit 7, Night 36, Median / WASO, Change from Baseline to Visit 7, Night 37, Median / WASO, Change from Baseline to Visit 7, Night 36, Mean (SD) / WASO, Change from Baseline to Visit 7, Night 37, Mean (SD): discontinuation
Source text: The term “rebound insomnia” refers to the common occurrence that a person may have more trouble sleeping the first few nights after a sedative medicine is stopped than before starting the medicine. After more than a few days' use, discontinuing a hypnotic or sedative medication can make the original sleep problem worse and can cause an increase anxiety. Rebound insomnia may be measured as the mean change in mean wake time after sleep onset (WASO) from baseline to the first night of discontinuation.
Patients were discharged from the sleep center after all final study-related procedures had been completed on the Final Study Day (Day 38, Early Termination [ET]).
Safety: Safety was assessed based on AEs, clinical laboratory tests (hematology, serum chemistry, and urinalysis), vital signs, physical examinations, neurological assessments, 12-lead ECGs, and ratings of hangover/residual effects (digit-symbol substitution test (DSST), symbol copying test (SCT), and the visual analog scale (VAS) for sleepiness), assessment of rebound insomnia using PSG recordings during the discontinuation period, and withdrawal symptoms using the benzodiazepine withdrawal symptom questionnaire (BWSQ).

[3] = doxepin 6 mg, Night 1, p<0.0001 vs placebo
[4] = doxepin 6 mg, Night 15, p 0.0157 vs placebo
[5] = doxepin 6 mg, Night 29, p 0.0003 vs placebo
[6] = Doxepin HCl 3 mg group, Night 36, N = 67 evaluable
[7] = Doxepin HCl 3 mg group, Night 36 and Night 37, N = 67 evaluable
[8] = Doxepin HCl 3 mg group, Visit 7, Night 37 (discontinuation)
[9] = Doxepin HCl 6 mg group, Night 36, N = 68 evaluable
[10] = Doxepin HCl 6 mg group, Night 36 and Night 37, N = 68 evaluable
[11] = Doxepin HCl 6 mg group, Visit 7, Night 37 (discontinuation)

## CN(C)CCC=C1c2ccccc2COc2ccccc21 [Doxepin, 11-(3-dimethylaminopropylidene)-6,11-dihydrodibenzo (b,e)oxepin]
[1]; doxepin 6 mg group, Baseline (single-blind placebo)
  8-hour WASO, Mean (SD): 65.0 (33.23) minutes
[1]; doxepin 6 mg group, Baseline
  LPS (latency to persistent sleep, PSG), Mean (SD): 39.1 (34.10) minutes
  SE - Hour 8 (PSG), Mean (SD): 76.4 (21.26) %
  TST (8-hour PSG), Mean (SD): 380.3 (43.09) minutes
[1]; doxepin 6 mg, Night 1 (primary), p<0.0001 vs placebo
  8-hour WASO, Mean (SD): 36.3 (26.14) minutes
[1]; [3]
  SE (8-hour PSG), Mean (SD): 87.6 (7.72) %
  SE - Hour 8 (PSG), Mean (SD): 88.4 (14.25) %
  TST (8-hour PSG), Mean (SD): 420.5 (37.07) minutes
[1]; doxepin 6 mg, Night 15, p 0.0023 vs placebo
  8-hour WASO, Mean (SD): 41.9 (29.67) minutes
[1]; [4]
  SE (8-hour PSG), Mean (SD): 85.7 (10.70) %
  TST (8-hour PSG), Mean (SD): 411.3 (51.34) minutes
[1]; doxepin 6 mg, Night 15, p 0.8315 vs placebo
  LPS (PSG), Mean (SD): 31.8 (36.57) minutes
[1]; [5]
  SE (8-hour PSG), Mean (SD): 87.3 (9.37) %
  TST (8-hour PSG), Mean (SD): 419.1 (44.98) minutes
[1]; doxepin 6 mg, Night 29, p 0.0012 vs placebo
  8-hour WASO, Mean (SD): 41.2 (37.91) minutes
[1]; doxepin 6 mg, Night 29, p 0.0034 vs placebo
  SE - Hour 8 (PSG), Mean (SD): 85.8 (19.66) %
[1]; doxepin 6 mg, Night 29, p 0.9989 vs placebo
  LPS (PSG), Mean (SD): 24.7 (21.48) minutes
[2]; 3 mg and 6 mg, 2-day discontinuation period following abrupt discontinuation of 35 nights of treatment
  Rebound insomnia (mean change in mean WASO from baseline to the first night of discontinuation): no rebound insomnia
[2]; 3 mg group at night 36, as measured by mean change in WASO
  Largest percentage of patients experiencing rebound effects: 15%
[2]; Doxepin HCl 3 mg group
  WASO (rebound insomnia analysis), Median: 79.5 min
  WASO (rebound insomnia analysis), Mean (SD): 83.5 (41.35) minutes
  WASO, Change from Baseline to Visit 7, Night 36, Median: -22.0 min
  WASO, Change from Baseline to Visit 7, Night 37, Median: -20.8 min
[2]; [6]
  Rebound insomnia frequency: patients with LPS change from Baseline ≧20 minutes at Visit 7, count (%): 7 (10%)
  Rebound insomnia frequency: patients with TST change from Baseline ≦−30 minutes at Visit 7, count (%): 9 (13%)
  Rebound insomnia frequency: patients with WASO change from Baseline ≧35 minutes at Visit 7, count (%): 10 (15%)
[2]; [7]
  Rebound insomnia frequency: patients with LPS change from Baseline ≧20 minutes at Visit 7, count (%): 3 (4%)
  Rebound insomnia frequency: patients with TST change from Baseline ≦−30 minutes at Visit 7, count (%): 3 (4%)
  Rebound insomnia frequency: patients with WASO change from Baseline ≧35 minutes at Visit 7, count (%): 1 (1%)
[2]; Doxepin HCl 3 mg group, Visit 7, Night 36 (discontinuation)
  WASO, Median: 50.5 min
[2]; Doxepin HCl 3 mg group, Visit 7, Night 36 (discontinuation, single-blind placebo after 35 nights of treatment)
  WASO, Mean (SD): 65.8 (48.72) minutes
[2]; [8]
  WASO, Mean (SD): 58.4 (42.76) minutes
  WASO, Median: 48.8 min
[2]; Doxepin HCl 3 mg group, 95% CI (−30.28, −6.57)
  WASO, Change from Baseline to Visit 7, Night 36, Mean (SD): −18.4 (48.60) minutes
[2]; Doxepin HCl 3 mg group, 95% CI (−35.26, −14.11)
  WASO, Change from Baseline to Visit 7, Night 37, Mean (SD): −24.7 (43.02) minutes
[2]; Doxepin HCl 6 mg group
  WASO (rebound insomnia analysis), Median: 72.5 min
  WASO (rebound insomnia analysis), Mean (SD): 78.4 (40.37) minutes
  WASO, Change from Baseline to Visit 7, Night 36, Median: -16.5 min
  WASO, Change from Baseline to Visit 7, Night 37, Median: -20.0 min
[2]; [9]
  Rebound insomnia frequency: patients with LPS change from Baseline ≧20 minutes at Visit 7, count (%): 8 (12%)
  Rebound insomnia frequency: patients with TST change from Baseline ≦−30 minutes at Visit 7, count (%): 6 (9%)
  Rebound insomnia frequency: patients with WASO change from Baseline ≧35 minutes at Visit 7, count (%): 7 (10%)
[2]; [10]
  Rebound insomnia frequency: patients with LPS change from Baseline ≧20 minutes at Visit 7, count (%): 2 (3%)
  Rebound insomnia frequency: patients with TST change from Baseline ≦−30 minutes at Visit 7, count (%): 2 (3%)
  Rebound insomnia frequency: patients with WASO change from Baseline ≧35 minutes at Visit 7, count (%): 3 (4%)
[2]; Doxepin HCl 6 mg group, Visit 7, Night 36 (discontinuation)
  WASO, Median: 46.0 min
[2]; Doxepin HCl 6 mg group, Visit 7, Night 36 (discontinuation, single-blind placebo after 35 nights of treatment)
  WASO, Mean (SD): 55.9 (40.26) minutes
[2]; [11]
  WASO, Mean (SD): 56.0 (42.68) minutes
  WASO, Median: 49.0 min
[2]; Doxepin HCl 6 mg group, 95% CI (−34.99, −12.27)
  WASO, Change from Baseline to Visit 7, Night 36, Mean (SD): −23.6 (46.93) minutes
[2]; Doxepin HCl 6 mg group, 95% CI (−36.26, −12.38)
  WASO, Change from Baseline to Visit 7, Night 37, Mean (SD): −24.3 (47.41) minutes
